Data as given in patent US10967047B2, “Mitochondrial antiviral-signaling (MAVS) polypeptides and detection and use thereof” (University of Vermont and State Agricultural College, priority 2016, dated 2021).

Tests used:
MEFs [1] = assay: Mitochondrial transmembrane potential (ΔΨm) by FACS using TMRE in MEFs; format: cell-based, mouse
Experimental: (§1) ROS generation was measured using oxidized, green-fluorescent dihydrocalcein acetoxymethylester (DHC-AM) (Life Technologies) and flow cytometry. Single-cell suspensions of MEFs were prepared and ROS was assessed with 5 μM DHC-AM staining in culture medium for 30 minutes (A. Rohnstock et al., (2007) Toxicol in Vitro 21, 1552-1562). 25 nM of cationic cell permeant dye tetramethylrhodamine ethylester (TMRE; Life Technologies) (R. C. Scaduto, Jr. et al., (1999), Biophysical journal 76, 469-477) were used to measure ΔΨm. Additionally, MitoSox Red and MitoTracker Deep Red (Life Technologies) were used to measure mitochondrial ROS and mitochondrial mass, respectively. Flow cytometry was carried out on an LSRII (BD Biosciences), and FlowJo software (Tree Star) was used for analysis.

Drp1 = assay: Phosphorylated Drp1 (Drp1 616p) at purified mitochondria, densitometry normalized to Cox IV; format: cell-based; conditions: 5′-ppp-RNA 1 μg/ml or GOx (FIG. 14A-B)
Experimental: To activate MAVS commercially available 5′-ppp-RNA was used at a concentration of 1 μg/ml, which activates RIG-I helicase. As an alternative GOx was used as previously described [Szeto, H. H., Br J Pharmacol, 2014. 171(8): p. 2029-50]. Mitochondria were purified by anti-Tom22 magnetic beads as previously described [Perl, A., et al., Int Rev Immunol, 2004. 23(3-4): p. 293-313]. Changes in the level of Drp1^616p at mitochondria were determined by densitometry, which was normalized to the level of Cox IV (FIG. 14A-B).

MEFs [2] = assay: ROS generation by FACS using DHC in MEFs; format: cell-based, mouse
Experimental: as §1

MEFs [3] = assay: Oxygen consumption rate (OCR), Seahorse XF-24 extracellular flux analyzer, MEFs; format: cell-based, mouse; conditions: MAVS-WT MEFs (FIG. 1I, J)
Experimental: Real-time analysis of OCR and ECAR was performed with an XF-24 Extracellular Flux Analyzer (Seahorse Bioscience). Metabolic profiles were measured under basal conditions in non-buffered DMEM (Sigma) containing 25 mM glucose, 2 mM L glutamine, and 1 mM sodium pyruvate, in response to 1 μM oligomycin, 0.5 μM FCCP, and 1 μM rotenone/1 μM antimycin A (M. B. de Moura et al., (2014) Methods in molecular biology 1105, 589-602). Total ATP was measured with the ATP Lite Kit (Perkin Elmer), and the ATP/ADP ratio was determined using the bioluminescence ADP/ATP Ratio Assay Kit from Sigma.

MAVS [4] = assay: MAVS expression and oligomerization in the mitochondrial fraction of BMDCs treated with free dye; format: cell-based, mouse; conditions: increasing concentrations of free Alx488 dye (FIG. 7G)
MAVS [5] = assay: MAVS oligomerization in MEFs (semi-denaturing gel electrophoresis, immunoblot, densitometry); format: cell-based, mouse
Experimental: 5′ triphosphate double-stranded RNA (5′-ppp-dsRNA), a synthetic ligand for RIG-I, was purchased from InVivoGen and used at a concentration of 1 μg/mL. Mitochondria-targeted antioxidant MitoQ and the mitochondria-targeted superoxide generator MitoPQ, were gifts of M. Murphy (G. F. Kelso et al., (2001) The Journal of biological chemistry 276, 4588-4596). The control reagent TPP was purchased from Sigma. Reagents were added to cells at concentrations as indicated. GOx was purchased from Sigma and added to cultured cells at a final concentration of 0.1 U/mL. Iodoacetamide was from Thermo Fisher, and used at a final concentration of 100 μM.
Cultured MEFs or human PBMCs were lysed in a sample buffer containing 2% SDS and insoluble cell fragments were removed by centrifugation. Plasma samples derived from SLE patients were collected and stored at −20° C. until gel electrophoresis. BCA protein assay (Thermo Scientific) was used to determine protein concentrations in all samples were resolved with SDS-PAGE under denaturing conditions. Gels were transferred to PVDF membranes using a Trans-Blot Turbo Transfer System (BioRad).
(§2) SDD-AGE was performed according to a published protocol with minor modifications (Alberti et al., (2009) Cell 137, 146-158). In brief, mitochondria were resuspended in sample buffer (0.5×TBE, 10% glycerol, 2% SDS, and 0.0025% bromophenol blue) and loaded onto a vertical 1.5% agarose gel. After electrophoresis in the running buffer (1×TBE and 0.1% SDS) for 35 min with a constant voltage of 75 V at 4° C., proteins were transferred to PVDF membranes using a Trans-Blot Turbo Transfer System (BioRad) for immunoblotting.
PVDF membranes were blocked in 5% solution of nonfat powdered milk in Tris-buffered saline. Antibodies used were specific for MAVS and Actin (Santa Cruz); RIPK1 and TRAF2 (BD Biosciences); TANK, TRADD, RIG-I, and GAPDH (Cell Signaling); MDAS and COX4 (Abcam), Alexa 488 (Life Technologies), and IRF3 (Thermo Fisher), respectively. Immunoreactive proteins were visualized using HRP-labeled conjugates (Jackson Immuno Research) and developed using Clarity Western ECL substrate (Biorad). Chemiluminescence was detected and recorded using a Biorad Chemidoc instrument. Densitometric measurements were performed in Image Lab image acquisition and analysis software (Biorad).

MEFs [6] = assay: IFN-I and IL-6 cytokine secretion by ELISA in MEF culture supernatants; format: cell-based, mouse; conditions: MAVS-WT MEFs
Experimental: ELISA was used to measure cytokine concentration in supernatant from cultured MEFs and BMDCs, and in sera of SLE patients and healthy control subjects. For assays, samples were centrifuged and IFN-β and IL-6 levels were measured in triplicate using murine or human ELISA kits according to the manufacturer's instructions. (PBL Biosciences). The fold change in IFN-I or IL-6 cells was calculated by directly comparing mock versus virus or chemical inducer of ROS.

MEFs [7] = assay: Cell death by FACS using live-dead stain; format: cell-based, mouse; conditions: MitoPQ at the doses used (1 to 10 nM) (FIG. 2I)
MAVS [8] = assay: MAVS oligomerization in human PBMC and plasma (semi-denaturing agarose gel electrophoresis); format: cell-based
Experimental: MAVS-deficient and matching WT MEFs, gift of Z. J. Chen (Z. J. Chen et al. (2005) Cell 122, 669-682), were maintained in Dulbecco's modified Eagle's medium (DMEM) (Hyclone), supplemented with 10% heat-inactivated fetal calf serum (FCS) (Hyclone), 100 mM L-glutamine (Cellgro Mediatech), and 10,000 units/mL penicillin/10 mg/mL streptomycin sulfate (Life Technologies). C57BL6 or B6; 129-Mavstm1Zjc/J mice (The Jackson Laboratory, Bar Harbor, Me.) were maintained at the University of Vermont under a protocol approved by the Institutional Animal Care and Use Committee. Murine BMDCs were prepared as described by Inaba et al. (K. Inaba et al., (1992) Journal of Experimental Medicine 176, 1693-1702). In brief, cells derived from femur bone marrow were cultured at a density of 5×10^5/mL in 10-cm plates in RPMI 1640 (HyClone), supplemented with 5% heat-inactivated FCS, 100 mmol L-glutamine, 100 mmol sodium pyruvate, 10,000 units/mL penicillin/10 mg/mL streptomycin sulfate, 5×10^−5 mol 2-mercaptoethanol (Sigma, St. Louis, Mo.), and 10 μg/mL GM-CSF (Life Technologies). Human subjects were enrolled under a protocol approved by the University of Vermont Institutional Review Board. Samples from 17 SLE patients fulfilling the American College of Rheumatology diagnostic criteria were studied (E. M. Tan et al., (1982) Arthritis and Rheumatism 25, 1271-1277). 16 out of 17 patients were female, and the age of study participants was 47±3. The disease activity was assessed by the SLE disease activity index (SLEDAI) scores, ranging from 0 to 10 (C. Bombardier et al., (1992) Arthritis and Rheumatism 35, 630-640). Upon informed consent, primary human PBMCs were obtained from heparinized whole-blood samples from SLE patients. Control PBMCs were generated from age-, sex-, and ethnicity-matched healthy subjects. PBMCs were isolated using standard Ficoll gradient centrifugation as previously described (R. Mallone et al., (2011) Clin. and Exp. Immunol. 163, 33-49). Cells were either used immediately to prepare lysates for immunoblotting or cultured at a density of 5×10^5/mL in a 12-well culture plate with RPMI 1640 (HyClone), supplemented with 5% heat-inactivated FCS, 100 mmol L-glutamine, 100 mmol sodium pyruvate, and 10,000 units/mL penicillin/10 mg/mL streptomycin sulfate. Enriched monocytes from PBMCs were used to prepare hDCs using negative magnetic bead selection (Miltenyi), and were subsequently cultivated for 6 d in 10 μg/mL GM-CSF and 500 U/mL IL-4. All cells were maintained in a humidified chamber at 37° C. and 5% CO2.
as §2
PVDF membranes were blocked in 5% solution of nonfat powdered milk in Tris-buffered saline. Antibodies used were specific for MAVS and Actin (Santa Cruz); RIPK1 and TRAF2 (BD Biosciences); TANK, TRADD, RIG-I, and GAPDH (Cell Signaling); MDAS and COX4 (Abcam), Alexa 488 (Life Technologies), and IRF3 (Thermo Fisher), respectively. […] Chemiluminescence was detected and recorded using a Biorad Chemidoc instrument. […]

[9] = Total thiol concentration of PBMC and plasma homogenates; parameters: species or system human
MAVS oligomers = molecular target: T1, MAVS oligomers (Homo sapiens, UniProt Q7Z434); assay: Membrane lipid-strip blot: interaction of lipids with MAVS oligomers isolated from SLE patients; format: binding; conditions: lipid strips exposed to 1 μg/ml MAVS oligomer from SLE patients (FIG. 15B)
T1 construct: The strips were exposed to 1 μg/ml of MAVS oligomer isolated from SLE patients; from tissue; host or cells: SLE patient material, immunoprecipitated with anti-MAVS antibody on protein G magnetic beads
Experimental: To assess MAVS oligomer interaction a plate coated with anti-phospholipid antibody was prepared and was later was saturated with purified CL. The same plate was exposed to purified and Alx488 labeled MAVS oligomers from mock or GOx treated healthy controls, or from SLE patients as previously published [Szeto, H. H., Br J Pharmacol, 2014. 171(8): p. 2029-50]. Following washing, fluorescence of captured MAVS oligomers was measured. As a control we used recombinant, purified and Alx488 labeled MAVS monomers. Results are shown in FIG. 15A with data shown as mean±SEM, with results representative of two experiments. […] Tests were performed on membrane lipid-strips (Echelon Biosciences). The strips were exposed to 1 μg/ml of MAVS oligomer isolated from SLE patients. The strips were washed with mild detergent and treated with phospholipase A2 (PLA2).

T1 sequence (Q7Z434 whole entry): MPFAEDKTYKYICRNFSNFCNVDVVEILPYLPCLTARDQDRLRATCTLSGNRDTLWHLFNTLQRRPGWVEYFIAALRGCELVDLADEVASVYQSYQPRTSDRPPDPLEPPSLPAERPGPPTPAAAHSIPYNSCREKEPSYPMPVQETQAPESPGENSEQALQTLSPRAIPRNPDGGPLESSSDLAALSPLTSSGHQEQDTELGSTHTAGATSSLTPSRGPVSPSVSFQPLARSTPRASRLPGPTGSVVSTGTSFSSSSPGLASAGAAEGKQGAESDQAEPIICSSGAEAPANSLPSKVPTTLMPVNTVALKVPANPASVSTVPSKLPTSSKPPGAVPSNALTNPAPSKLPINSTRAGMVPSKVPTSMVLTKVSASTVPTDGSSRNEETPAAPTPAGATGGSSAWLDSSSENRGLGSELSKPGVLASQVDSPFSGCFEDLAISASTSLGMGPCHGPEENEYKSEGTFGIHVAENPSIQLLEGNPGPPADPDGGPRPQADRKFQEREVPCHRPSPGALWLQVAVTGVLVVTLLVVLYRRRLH

Molecule: 5′ triphosphate double-stranded RNA [5′-ppp-RNA]
- ΔΨm induced by the substance (MEFs [1]; MAVS-WT MEFs, not observed in MAVS-KO (FIG. 1B, 2D)): increased
- level of phosphorylated Drp1 at mitochondria after MAVS activation (Drp1): lower levels of phosphorylated Drp1 at mitochondria
- ROS after transfection (MEFs [2]; MAVS-WT MEFs, initial 12 h, 1 μg 5′-ppp-RNA (FIG. 1A)): increased
- basal OCR versus mock-treated cells (MEFs [3]): significantly lower basal OCR

Molecule: N=c1ccc2c(-c3ccc(C(=O)O)cc3C(=O)O)c3ccc(N)c(S(=O)(=O)O)c3oc-2c1S(=O)(=O)O [Alx488, Alexa Fluor 488]
- MAVS expression or oligomerization with free fluorophore (MAVS [4]): did not lead to increased MAVS expression or oligomerization

Molecule: C[n+]1ccc(-c2cc[n+](CCCCCCCCCC[P+](c3ccccc3)(c3ccccc3)c3ccccc3)cc2)cc1.[I-].[I-].[I-] [MitoPQ, MitoParaquat]
- induction of MAVS oligomerization without viral infection (MAVS [5]; MEFs, substance alone (MitoPQ 1 to 10 nM, FIG. 2H; GOx, FIG. 2A)): MAVS oligomerization
- IFN-I secretion induced by the substance (MEFs [6]; not observed in MAVS-KO (FIG. 2E, 2J)): significant increase
- IL-6 secretion induced by the substance (MEFs [6]; not observed in MAVS-KO (FIG. 2F, 2K)): significant increase
- superoxide within mitochondria / ROS (MEFs [2]; MEFs, MitoPQ 1 to 10 nM (FIG. 2G)): increased amount of superoxide within mitochondria
- cell death (MEFs [7]): without causing significant cell death

Molecule: CCCCCCCCCC[P+](c1ccccc1)(c1ccccc1)c1ccccc1 [dTPP]
- MAVS oligomerization after pretreatment (MAVS [5]; MEFs pretreated (100 μM) before GOx or SINV (FIG. 3A)): did not demonstrate reversal of MAVS oligomerization

Molecule: NC(=O)CI [iodoacetamide]
- MAVS oligomers with thiol blocking during homogenization (MAVS [8]; cells homogenized in buffer with 100 μM iodoacetamide after GOx or SINV (FIG. 9)): did not result in a decrease in MAVS oligomers
- detection of MAVS oligomers in SLE cells or plasma with thiol blocking (MAVS [8]; iodoacetamide added to SLE PBMC and plasma samples (FIG. 9)): did not decrease the detection of MAVS oligomers
- reduction of total thiol concentration, PBMCs ([9]; PBMC homogenates (FIG. 9)): 80%
- reduction of total thiol concentration, plasma ([9]; plasma homogenates (FIG. 9)): 94%

Molecule: OCCS [β-Me, β-mercaptoethanol]
- reversal of GOx-induced MAVS oligomerization (MAVS [5]; cell media supplemented with β-Me (FIG. 2A)): reversible
- reversal of SINV-induced MAVS oligomerization (MAVS [5]; cell media supplemented with β-Me, SINV infection (FIG. 2A)): only a portion of the MAVS oligomers were reducible
- mitochondrial hyperpolarization in GOx-treated cells (MEFs [1]; media supplemented with β-Me, GOx (FIG. 2D)): prevented mitochondrial hyperpolarization
- GOx-induced MAVS oligomerization in PBMCs after pretreatment (MAVS [8]; healthy-donor PBMCs pretreated with MitoQ or grown in presence of β-Me, then GOx (FIG. 4A)): MAVS oligomerization did not occur

Molecule: cardiolipin [CL]
- interaction with MAVS oligomers (MAVS oligomers): significant interaction
